Measured values: the supplement of paper PMC10883282
± gives the standard deviation of the averaged measurements.

Test system: VA-ES-BJ
Assay: relative viability vs DMSO control (72 h) (fraction); higher = more viable cells
Summary of the method: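 Relative viability was measured with ATPLite and expressed as percent growth, averaged across up to triplicate wells. Sarcoma cell lines had been seeded in 384-well plates to reach 80–90% confluence, dosed after 24 h, and incubated 72 h at 37 °C, 5% CO2. All data were rescaled on a scale where 1 is full and 0 is none.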

Compound	relative viability (0.00017 µM)	relative viability (0.00051 µM)	relative viability (0.00152 µM)	relative viability (0.00457 µM)	relative viability (0.01372 µM)	relative viability (0.04115 µM)	relative viability (0.1235 µM)	relative viability (0.3704 µM)	relative viability (1.111 µM)	relative viability (3.333 µM)	relative viability (10 µM)
CC1(C)CNc2cc(NC(=O)c3cccnc3NCc3ccncc3)ccc21 [Motesanib]	0.98 ± 0.021	0.982 ± 0.018	0.976 ± 0.041	1 ± 0.03	0.9877 ± 0.0081	1 ± 0.017	1.011 ± 0.0069	1.02 ± 0.022	1.04 ± 0.042	1.04 ± 0.024	1.03 ± 0.029
C[C@@H](c1ccc2nccn2c1)n1nnc2ncc(-c3cnn(C)c3)nc21 [Volitinib]	1.07 ± 0.067	1.07 ± 0.053	1.04 ± 0.062	1.02 ± 0.046	0.93 ± 0.043	0.868 ± 0.066	0.875 ± 0.03	0.879 ± 0.058	0.884 ± 0.048	0.873 ± 0.042	0.886 ± 0.048
Cc1ccc(NC(=O)c2ccc(CN3CCN(C)CC3)cc2)cc1Nc1nc(-c2cccnc2)cs1 [Masitinib]	1.08 ± 0.016	1.078 ± 0.0055	1.05 ± 0.019	1.06 ± 0.033	1.08 ± 0.022	1.05 ± 0.013	1.02 ± 0.024	1.01 ± 0.038	0.897 ± 0.02	0.621 ± 0.016	0.177 ± 0.0072
C=CC(=O)Nc1cccc(Oc2nc(Nc3ccc(N4CCN(C)CC4)cc3)nc3ccsc23)c1 [Olmutinib]	1.01 ± 0.052	1.01 ± 0.029	1.01 ± 0.029	1.01 ± 0.027	1.02 ± 0.043	1 ± 0.039	0.996 ± 0.052	0.96 ± 0.065	0.905 ± 0.06	0.786 ± 0.038	0.534 ± 0.013
CC(C)(C)c1cc(NC(=O)Nc2ccc(-c3cn4c(n3)sc3cc(OCCN5CCOCC5)ccc34)cc2)no1 [Quizartinib]	1.06 ± 0.028	1.06 ± 0.038	1.05 ± 0.019	1.06 ± 0.032	1.05 ± 0.026	1.05 ± 0.038	1.02 ± 0.059	1.04 ± 0.03	1.02 ± 0.045	0.947 ± 0.022	0.831 ± 0.032
CC(C)NC(=O)C1CCC(n2c(NC(=O)c3ccc(F)cc3)nc3ccc(CN4CCC(C(C)(C)O)CC4)cc32)CC1 (centres undefined) [Belizatinib]	1.05 ± 0.04	1.07 ± 0.059	1.05 ± 0.064	1.04 ± 0.018	1.08 ± 0.022	1.06 ± 0.046	1 ± 0.017	0.926 ± 0.014	0.658 ± 0.012	0.359 ± 0.012	0.164 ± 0.0087
Cc1ccc(F)c(NC(=O)Nc2ccc(-c3cccc4[nH]nc(N)c34)cc2)c1 [Linifanib]	1.05 ± 0.022	1.07 ± 0.041	1.06 ± 0.03	1.07 ± 0.056	1.05 ± 0.025	1.08 ± 0.059	1.07 ± 0.046	1.06 ± 0.056	1.11 ± 0.063	1.11 ± 0.035	1.03 ± 0.047
Cc1nc(NC(=O)N2CCC[C@H]2C(N)=O)sc1-c1ccnc(C(C)(C)C(F)(F)F)c1 [Alpelisib]	1.062 ± 0.0069	1.03 ± 0.048	1.03 ± 0.022	0.992 ± 0.054	0.981 ± 0.04	0.94 ± 0.045	0.924 ± 0.045	0.833 ± 0.019	0.741 ± 0.021	0.61 ± 0.01	0.378 ± 0.011
C[C@]1(O)C[C@@H](c2nc(-c3ccc4ccc(-c5ccccc5)nc4c3)c3c(N)nccn32)C1 [Linsitinib]	1.08 ± 0.025	1.07 ± 0.04	1.05 ± 0.05	1.06 ± 0.011	1.01 ± 0.02	0.989 ± 0.021	0.987 ± 0.052	0.966 ± 0.042	0.937 ± 0.05	0.871 ± 0.11	0.74 ± 0.036
